Among the test systems are SK-MEL-28 melanoma; MALME-3M melanoma; OVCAR-8 ovarian; SF-268 CNS; HCT-116 colon; SF-539 CNS; 786-0 renal; UO-31 renal; M14 melanoma; HCT-15 colon.
What all share (experiment): growth of human tumour cells (NCI), 48 h

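Briefly, cells in 96-well plates were exposed to five compound concentrations for 48 h, and endpoints were estimated by linear interpolation. At the GI50, growth is halved. TGI denotes the concentration required for complete inhibition of growth.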 Bounds are passed on as bounds.

For the compound `COc1cc(C2=NN(C(C)=O)C(c3ccc(OC(C)=O)cc3OC(C)=O)O2)c(OC(C)=O)c2ccccc12` (stereo not given), the GI50 in the assay with SK-MEL-28 melanoma is 1.27 µM; in the assay on MALME-3M melanoma it was 1.83 µM; in the assay with OVCAR-8 ovarian it was 0.426 µM; with SF-268 CNS it was 0.465 µM; in the assay on HCT-116 colon, 0.346 µM; in the assay on SF-539 CNS it was 0.697 µM. Also, the GI50 was 0.902 µM in the assay with 786-0 renal, 0.38 µM with UO-31 renal, 0.582 µM in the assay with M14 melanoma and 0.581 µM in the assay on HCT-15 colon. In addition, the TGI in the assay with SK-MEL-28 melanoma was 23.2 µM; in the assay with MALME-3M melanoma, 20.5 µM; in the assay with OVCAR-8 ovarian, 33.7 µM; with SF-268 CNS, over 24.4 µM; in the assay with HCT-116 colon, 12.2 µM; with SF-539 CNS, 3.48 µM. Moreover, the TGI with 786-0 renal was determined as 12.7 µM; in the assay on UO-31 renal, 7.12 µM; in the assay on M14 melanoma it was 7.15 µM; with HCT-15 colon, 25.6 µM.

With `CC1CN1CC(O)C(O)CN1CC1C` (stereo not given), the GI50 in the assay on SK-MEL-28 melanoma was 17.5 µM; with MALME-3M melanoma, 2.13 µM; with OVCAR-8 ovarian, 1.13 µM; in the assay on SF-268 CNS, 0.716 µM; in the assay with HCT-116 colon, 2.29 µM; in the assay on SF-539 CNS, 1.84 µM. Besides, the GI50 in the assay with 786-0 renal is 0.831 µM; in the assay on UO-31 renal, 0.932 µM; in the assay with M14 melanoma, 2.16 µM; with HCT-15 colon, 4 µM. Moreover, the TGI with SK-MEL-28 melanoma is 97.4 µM; with MALME-3M melanoma, 13.7 µM; in the assay on OVCAR-8 ovarian, over 71.2 µM; with SF-268 CNS, over 53.5 µM; with HCT-116 colon it was over 100 µM; in the assay on SF-539 CNS, 45.4 µM. The TGI in the assay with 786-0 renal is over 41.2 µM; in the assay on UO-31 renal it was 10.9 µM; in the assay on M14 melanoma, 28.7 µM; with HCT-15 colon it was 46 µM.

Take `CCS(=O)(=O)c1ccc(OC)c(Nc2ncc(-c3cccc(OC)c3)o2)c1`: the GI50 in the assay on SK-MEL-28 melanoma was over 20.6 µM; in the assay on MALME-3M melanoma it was over 25 µM; in the assay on OVCAR-8 ovarian, 9.66 µM; with SF-268 CNS, 8.84 µM; with HCT-116 colon, 8.1 µM; in the assay on SF-539 CNS it was 6.96 µM. For the same compound, the GI50 is 9.57 µM in the assay with 786-0 renal, 3.4 µM in the assay with UO-31 renal, 14.6 µM with M14 melanoma and 10.6 µM with HCT-15 colon. For the same compound, the TGI in the assay on SK-MEL-28 melanoma, in the assay on MALME-3M melanoma, in the assay with OVCAR-8 ovarian, with SF-268 CNS, in the assay with HCT-116 colon and in the assay on SF-539 CNS was over 25 µM throughout. For the same compound, the TGI with 786-0 renal was over 25 µM; in the assay on UO-31 renal, 13.8 µM; with M14 melanoma, over 25 µM; in the assay on HCT-15 colon, over 25 µM.

Consider `CCC#CC[C@H]1C/C=C2/C(=O)C=C[C@@H]2C/C=C\CCCC(=O)O1`, for which the GI50 in the assay on SK-MEL-28 melanoma was 1.17 µM; in the assay with MALME-3M melanoma, 1.13 µM; in the assay with OVCAR-8 ovarian it was 0.783 µM; in the assay on SF-268 CNS, 1.23 µM; in the assay with HCT-116 colon, 0.43 µM; with SF-539 CNS, 1.94 µM. The GI50 in the assay on 786-0 renal was 1.06 µM; with UO-31 renal, 0.73 µM; in the assay on M14 melanoma, 1.48 µM; in the assay with HCT-15 colon, 0.67 µM. The TGI stood at 3.83 µM with SK-MEL-28 melanoma; 3.24 µM with MALME-3M melanoma; 9.71 µM in the assay with OVCAR-8 ovarian; 4.55 µM in the assay on SF-268 CNS; 2.61 µM with HCT-116 colon; 7.67 µM with SF-539 CNS. For the same compound, the TGI amounted to 2.4 µM in the assay on 786-0 renal, 1.56 µM in the assay on UO-31 renal, 8.61 µM in the assay with M14 melanoma and 2.14 µM with HCT-15 colon.

In the case of `COc1ccc2c(c1)C=C([N+](=O)[O-])C(C1OC(C)(C)OC1C1COC(C)(C)O1)O2` (stereo not given), the TGI in the assay with SK-MEL-28 melanoma was 3.83 µM; with MALME-3M melanoma, 6.15 µM; in the assay on OVCAR-8 ovarian it was 11.4 µM; in the assay with SF-268 CNS, 13.5 µM; in the assay on HCT-116 colon, 4.04 µM; in the assay on SF-539 CNS, 19.3 µM. Besides, the TGI in the assay on 786-0 renal stood at 26.5 µM; in the assay with UO-31 renal, 26.3 µM; with M14 melanoma, 6.15 µM; in the assay on HCT-15 colon it was 5.2 µM.

As for `CC(C)(C)OC(=O)Cc1ccc2c(ccn2Cc2ccccc2)c1`, the TGI in the assay on SK-MEL-28 melanoma, in the assay on MALME-3M melanoma, in the assay with OVCAR-8 ovarian, in the assay with SF-268 CNS, in the assay with HCT-116 colon and in the assay with SF-539 CNS was over 100 µM each time. Besides, the TGI in the assay with 786-0 renal, with UO-31 renal, with M14 melanoma and in the assay with HCT-15 colon was over 100 µM throughout.

For `CCOC(=O)c1c(CN2CCN(c3ccccc3)CC2)n(-c2ccccc2)c2cc(Br)c(O)cc12`, the GI50 in the assay with SK-MEL-28 melanoma was 16.6 µM; in the assay with MALME-3M melanoma it was 16.5 µM; in the assay with OVCAR-8 ovarian it was 9.32 µM; in the assay on SF-268 CNS it was 9.63 µM; in the assay on HCT-116 colon, 4.39 µM; in the assay with SF-539 CNS, 15.5 µM. Moreover, the GI50 is 5.23 µM with 786-0 renal, 8.99 µM in the assay on UO-31 renal, 15 µM in the assay on M14 melanoma and 11.3 µM in the assay with HCT-15 colon. Further, the TGI is 42.1 µM in the assay with SK-MEL-28 melanoma; 40.1 µM with MALME-3M melanoma; 57 µM with OVCAR-8 ovarian; 41.4 µM in the assay on SF-268 CNS; 20.1 µM in the assay on HCT-116 colon; 34.9 µM with SF-539 CNS. For the same compound, the TGI in the assay on 786-0 renal was found to be 21.5 µM; with UO-31 renal, 23.1 µM; with M14 melanoma it was 41.6 µM; in the assay with HCT-15 colon, 38.6 µM.

For the compound `N#Cc1nc(C2OC(COC(=O)c3ccccc3)C(OC(=O)c3ccccc3)C2OC(=O)c2ccccc2)oc1N` (stereo not given), the TGI in the assay on SK-MEL-28 melanoma, with MALME-3M melanoma, in the assay on OVCAR-8 ovarian, in the assay with SF-268 CNS, in the assay on HCT-116 colon and in the assay on SF-539 CNS was over 100 µM in each case. Also, the TGI in the assay with 786-0 renal was over 100 µM; with UO-31 renal, 66.8 µM; with M14 melanoma it was over 100 µM; with HCT-15 colon, over 100 µM.

Consider `O=C(CCl)Nc1ccc(Cl)cc1`, for which the GI50 in the assay with SK-MEL-28 melanoma was 9.31 µM; with MALME-3M melanoma it was 3.33 µM; in the assay with OVCAR-8 ovarian, 4.6 µM; in the assay with SF-268 CNS it was 2.72 µM; with HCT-116 colon it was 2.7 µM; with SF-539 CNS, 3.78 µM. The GI50 in the assay with 786-0 renal was 4.64 µM; in the assay with UO-31 renal, 8.07 µM; in the assay on M14 melanoma it was 4.45 µM; in the assay on HCT-15 colon it was 2.27 µM. In addition, the TGI with SK-MEL-28 melanoma is 22.1 µM; with MALME-3M melanoma, 13.2 µM; with OVCAR-8 ovarian, over 100 µM; with SF-268 CNS, 7.66 µM; in the assay with HCT-116 colon, 10.2 µM; in the assay on SF-539 CNS it was 12.6 µM. For the same compound, the TGI in the assay with 786-0 renal worked out at 19.5 µM; in the assay with UO-31 renal, 24.1 µM; in the assay with M14 melanoma, 17 µM; in the assay with HCT-15 colon, 6.33 µM.

(Values after PubChem BioAssay (NCI).)
